Measured values from patent US7186879B2, “Screening systems and methods for identifying modulators of xenobiotic metabolism” (Baylor College of Medicine, priority 2001, dated 2007).
Entries after “also recorded” stand apart in the source; their conditions may differ.

Columns and labels:
CYP enzyme activity = assay: Zoxazolamine paralysis test; conditions: for effect of pretreatment on paralysis: CAR −/− mice; for duration of zoxazolamine-induced paralysis: 3-day pretreatment, zoxazolamine 300 mg/kg i.p.; for animals that died: female CAR −/− mice after zoxazolamine; for effect of pretreatment on duration of paralysis: wild-type animals
Method: In these experiments, mice were pretreated for three days with PB or TCPOBOP, after which time they were given a single intraperitoneal injection of zoxazolamine (300 mg/kg). Paralysis time was recorded as the time when the mice were able to right themselves repeatedly.

[1] = tested on: wild-type and CAR −/− mice; assay: Liver enlargement (liver mass relative to body weight); assay type: in vivo, mouse; conditions: for hyperplasia or hypertrophy in the liver: CAR knockout mice; for liver mass: three days of treatment
Method: FIG. 3A is a bar graph showing the liver enlargement and hepatocyte proliferation by PB or TCPOBOP. Mice (8–10 weeks old) were treated with PB or TCPOBOP for 3 days, and then both liver mass and body weight were measured. The data is presented as percentage of liver mass relative to total body weight.
This hepatomegaly is thought to be a reflection of both cellular hypertrophy and mitogenesis.

hepatocytes = assay: Hepatocyte proliferation (BrdU incorporation); assay type: in vivo, mouse; conditions: wild-type animals
Method: FIG. 3B is a set of pictures of PB-treated, TCPOBOP-treated, or control mice that were treated with BrdU for two hours before their liver tissues were harvested.
To determine the proliferation of hepatocytes following PB or TCPOBOP treatment, mice pretreated with corn oil, PB, or TCPOBOP received a single intraperitoneal dose of BrdU/FdU (2 ml/100 g, Amersham). Mice were sacrificed approximately 2 hours after BrdU administration. BrdU incorporation was determined using a mouse anti-BrdU monoclonal antibody (DAKO Corporation) and Vectastain ABC Kit (Vector Laboratories Inc.) (FIG. 3B), using standard procedures.

[2] = tested on: wild-type and CAR −/− mice; assay: Cocaine-mediated hepatotoxicity, serum ALT; conditions: for evidence of liver damage after cocaine: CAR −/− animals; for serum ALT as acute response to cocaine: male wild-type mice pretreated three days, cocaine 30 mg/kg
Method: FIG. 4 is a bar graph showing the effect of PB or TCPOBOP on cocaine-mediated hepatotoxicity, measured as serum alanine aminotransferase (ALT) activity. Male mice were pretreated with PB or TCPOBOP for three days. Twenty-four hours after the last dose, one injection of cocaine was given to the animals. Blood was drawn 20 hours after cocaine treatment for determination of serum ALT activity.
Blood was drawn from the eye for determination of serum ALT activity.

hepatic GSH = assay: Hepatic GSH content (non-protein thiol); assay type: in vivo, mouse; conditions: for hepatic GSH levels versus vehicle CAR (+/+) and pretreated CAR (−/−) animals: pretreated wild-type animals, two hours after APAP; for decrease in hepatic GSH: pretreated wild-type mice, two hours after APAP 250 mg/kg
Method: CAR (+/+) or CAR (−/−) animals pretreated with phenobarbital (PB), TCPOBOP (TC), or vehicle alone were administered a 250 mg/kg dose of APAP by intraperitoneal injection (n=5–7 per treatment group) (FIG. 11A). Serum was collected and alanine aminotransferase (ALT) levels were measured after 24 hours. Liver sections from different treatments were examined by histological staining (FIG. 11B). Liver samples from all treated animals were analyzed but only representative histology is presented. […] CAR (+/+) or CAR (−/−) animals were pretreated with PB, TCPOBOP (TC), or vehicle alone for three days (FIG. 11C). […] Liver samples treated as indicated were collected two hours after APAP and GSH levels were measured (n=5–7) (FIG. 11D).
FIG. 15A is a picture of the histological staining of liver sections after two hours of 500 mg/kg APAP treatment. Liver sections from animals injected with 500 mg/kg APAP for 0 or 2 hours were stained with hematoxylin and eosin. Arrows indicate initial stages of necrosis surrounding central veins. The same liver samples were collected and GSH levels were measured at 0 and 2 hours as indicated. FIG. 15B is a graph of these GSH levels.
For histologic examination of the treated mice, the left lobe of the livers was removed and immediately fixed in 4% formaldehyde-PBS solution, embedded in paraffin, sectioned at 5 μm, and stained with hematoxylin and eosin. Samples were examined under a light microscope. For RNA studies, total RNA was extracted using TRIzol Reagent (Invitrogen Life Technologies, Carlsbad, Calif.) according to the manufacture's instruction. Equivalent amount of RNA from 3–5 mice were pooled and 10 μg of each sample was subjected to northern blot analysis. […] Preparation of probes for CYP2B10 and CYP3A11 were described as previously (Wei et al., Nature 407:920–923, 2000 and Zelko et al., Mol Cell Biol 21:2838–2846, 2001). PCR primers used were: CYP1A2: 5′-[…]-3′ (SEQ ID NO: 19) and 5′-[…]-3′ (SEQ ID NO: 20), CYP2E1: 5′-[…]-3′ (SEQ ID NO: 21) and 5′-[…]-3′ (SEQ ID NO: 22), GSTPi: 5′-[…]-3′ (SEQ ID NO: 23) and 5′-[…]-3′ (SEQ ID NO: 24). Hepatic non-protein thiol was measured as an indication of hepatic GSH content. Mice were sacrificed two hours after intraperitoneal injection with APAP. Livers were removed and immediately homogenized in four volumes of 5% trichloroacetic acid and then centrifuged at 1,600×g for 15 minutes. Supernatant (0.5 ml) was mixed with 1.5 ml 0.1 mM Ellman's reagent [5,5′-dithio-bis(2-nitrobenzoic acid)] (Sigma, St Louis, Mo.) and allowed to stand at room temperature for 15 minutes. Absorbance was read at 412 nm using GSH solutions as quantitative standards.

CYP3A11 = assay: Northern blot of CYP3A11 mRNA in liver; conditions: for induction of CYP311: CAR −/− mice; for induction of murine CYP3A11 mRNA: wild-type mice
Method: (§1) At least three mice between about 8–10 weeks old were used for each treatment. Mice were pretreated by intraperitoneal injection with corn oil, PB (100 mg/kg, Sigma), or TCBOPOP (3 mg/kg) for the indicated time. For a three day PB treatment, mice were injected intraperitoneally three times with PB, at one injection per day.

human CAR = molecular target: T1, human CAR (Homo sapiens, UniProt Q14994); assay: CYP2B10 mRNA induction in humanized CAR mice lacking murine CAR; conditions: mice expressing only human CAR in liver, 24 hours
T1 sequence (Q14994 1-348 isoform Q14994-2): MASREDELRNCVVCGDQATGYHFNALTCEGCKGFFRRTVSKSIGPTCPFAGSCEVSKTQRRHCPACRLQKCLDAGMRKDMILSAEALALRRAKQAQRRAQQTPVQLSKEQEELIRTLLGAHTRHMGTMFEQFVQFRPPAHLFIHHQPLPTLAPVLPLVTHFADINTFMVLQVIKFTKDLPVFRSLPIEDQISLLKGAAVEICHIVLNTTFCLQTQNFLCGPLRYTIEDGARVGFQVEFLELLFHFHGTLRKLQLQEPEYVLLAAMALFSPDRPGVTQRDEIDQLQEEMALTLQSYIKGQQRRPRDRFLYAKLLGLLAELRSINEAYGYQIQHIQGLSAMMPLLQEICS
Method: Total RNA was prepared from the livers of the individual mice, and CYP2B10 mRNA expression was assessed by Northern blotting.
Mice heterozygous for the murine CAR gene mutation and lacking the human CAR transgene express only murine CAR. […] Mice homozygous for the murine CAR gene mutation and carrying the human CAR transgene express only human CAR in the liver.

CYP2B10 = assay: Northern blot of CYP2B10 mRNA in liver of wild-type and CAR knockout mice
Method: as §1
Approximately 20 μg of total RNA from individual mouse livers was subjected to Northern blot analysis (FIG. 1C). A mouse CAR cDNA probe was used to reveal the absence of CAR transcripts in the CAR null mice. Probes for CYP2B10 were prepared by RT-PCR with mouse liver total RNA using Superscript One-step RT-PCR System (Life Technologies).

Clc1cnc(Oc2ccc(Oc3ncc(Cl)cc3Cl)cc2)c(Cl)c1 [TCPOBOP, 1,4-bis[2-(3,5-dichloropyridyloxy)]benzene]
effect of pretreatment on paralysis (CYP enzyme activity): not affected | duration of zoxazolamine-induced paralysis (CYP enzyme activity; female CAR (+/+) mice): not paralyzed | duration of zoxazolamine-induced paralysis (CYP enzyme activity; female CAR (−/−) mice): died | animals that died (CYP enzyme activity): two animals from each group | duration of zoxazolamine-induced paralysis (CYP enzyme activity; male CAR (+/+) mice): <20 min | duration of zoxazolamine-induced paralysis (CYP enzyme activity; male CAR (−/−) mice): >300 min | effect of pretreatment on duration of paralysis (CYP enzyme activity): significantly decreased the duration of paralysis | hyperplasia or hypertrophy in the liver [1]: not detected | liver mass ([1]; CAR −/− mice): did not show any evidence of increased liver mass | liver mass ([1]; wild-type mice): increase in liver mass | BrdU-positive hepatocytes (hepatocytes): presence of BrdU-positive hepatocytes | evidence of liver damage after cocaine [2]: not observed | serum ALT as acute response to cocaine [2]: significant increase | hepatic GSH levels versus vehicle CAR (+/+) and pretreated CAR (−/−) animals (hepatic GSH): significantly different | decrease in hepatic GSH (hepatic GSH): approximately 50% | induction of CYP311 (CYP3A11): negligible level of induction | induction of murine CYP3A11 mRNA (CYP3A11): substantial induction | induction of CYP2B10 mRNA (human CAR): did not respond; also recorded: not by TCPOBOP | induction of expression of CYP2B10 mRNA (CYP2B10; CAR knockout animals): absent | induction of expression of CYP2B10 mRNA (CYP2B10; wild-type male or female mice): robust induction

CCC1(c2ccccc2)C(=O)NC(=O)NC1=O [PB, phenobarbital]
effect of pretreatment on paralysis (CYP enzyme activity): not affected | duration of zoxazolamine-induced paralysis (CYP enzyme activity; female CAR (+/+) mice): not paralyzed | duration of zoxazolamine-induced paralysis (CYP enzyme activity; female CAR (−/−) mice): died | animals that died (CYP enzyme activity): two animals from each group | duration of zoxazolamine-induced paralysis (CYP enzyme activity; male CAR (+/+) mice): <20 min | duration of zoxazolamine-induced paralysis (CYP enzyme activity; male CAR (−/−) mice): >300 min | effect of pretreatment on duration of paralysis (CYP enzyme activity): significantly decreased the duration of paralysis | hyperplasia or hypertrophy in the liver [1]: not detected | liver mass ([1]; CAR −/− mice): did not show any evidence of increased liver mass | liver mass ([1]; wild-type mice): increase in liver mass | BrdU-positive hepatocytes (hepatocytes): presence of BrdU-positive hepatocytes | evidence of liver damage after cocaine [2]: not observed | serum ALT as acute response to cocaine [2]: significant increase | hepatic GSH levels versus vehicle CAR (+/+) and pretreated CAR (−/−) animals (hepatic GSH): significantly different | decrease in hepatic GSH (hepatic GSH): approximately 50% | induction of CYP311 (CYP3A11): negligible level of induction | induction of murine CYP3A11 mRNA (CYP3A11): substantial induction | induction of CYP2B10 mRNA (human CAR): induction of CYP2B10 mRNA; also recorded: induces a CAR target gene | induction of expression of CYP2B10 mRNA (CYP2B10; CAR knockout animals): absent | induction of expression of CYP2B10 mRNA (CYP2B10; wild-type male or female mice): robust induction
